In patent publication US8729134B2, “Aryl di-substituted propenone compounds” (Heartlink Limited, priority 2008, dated 2014):
Values after ≈ are worked out from the molar mass of the structure shown. “Also recorded” adds a separate entry of the source. Like-named read-outs stand apart in the source and are kept apart here.

Tests used:
[1] = system: OVCAR-3 (ovarian adenocarcinoma) cells; assay: MTT cell viability assay, OVCAR-3 cells; type: cell-based; details: Homo sapiens, read-out: IC 50, inhibition in OVCAR-3 cells
Description: (§1) Cell viability was tested using the MTT assay (Amersham). The MTT [3-(4,5-dimethylthiazol-2-yl)-2,5-diphenyltetrazolium bromide] assay, was first described by Mosmann in 1983, (J Immunol Methods. 1983 Dec. 16; 65(1-2):55-63). The assay is based on the ability of a mitochondrial dehydrogenase enzyme from viable cells to cleave the tetrazolium rings of the pale yellow MTT and form a dark blue formazan crystals which is largely impermeable to cell membranes, thus resulting in accumulation within healthy cells. Solubilisation of the cells by the addition of a detergent results in the liberation of the crystals which are then solubilized. The number of surviving cells is directly proportional to the level of the formazan product created. The colour can then be quantified using a simple colorimetric assay. The results can be read on a multi-well scanning spectrophotometer (ELISA reader).
(§2) Cells were plated at predetermined densities in 96 well plates. These were then incubated for 24 hours at 37° C. with 5%; CO2. Growth medium was then removed and replaced with 100 μl of growth medium containing various dilutions of test reagents or appropriate controls.
(§3) Plates were then incubated for a either 48 or 96 hours.
(§4) MTT reagent was then added to each well. The plates were then incubated in a 37° C./5% CO2 incubator. Detergent reagent was then added to each well. The plates were incubated overnight at 37° C./5% CO2. The absorbance was read at 570 nm.
(§5) Also, Compounds II-IV were compared with genistein to test the cell viability of SK-OV-3 (ovarian adenocarcinoma), OVCAR-3 (ovarian adenocarcinoma), and C-33A (cervical carcinoma) cell lines.

[2] = system: SK-MEL-28 (human malignant melanoma) cell line; assay: MTT cell viability assay, SK-MEL-28 cells; type: cell-based; details: read-out: IC 50, inhibition in SK-MEL-28 cells
Description: as §1, §2, §3, §4
Compounds II, III and IV were compared with genistein to test the cell viability of SK-MEL-28 (human malignant melanoma) cell line.

[3] = system: MCF-7 cells (human, mammary, adenocarcinoma cell line); assay: MTT cell viability assay, MCF-7 cells; type: cell-based; details: MCF7, 48 hours incubation, read-out: IC50, inhibition of MCF7 cells
Description: (§6) Compounds II-IV were compared with genistein to test the cell viability of MCF-7 cells (human, mammary, adenocarcinoma cell line) and MDA-MB-435 cells (human mammary ductal carcinoma).
as §1, §2, §3, §4

[4] = system: SK-OV-3 (ovarian adenocarcinoma) cells; assay: MTT cell viability assay, SK-OV-3 cells; type: cell-based; details: Homo sapiens, read-out: IC 50, inhibition in SK-OV-3 cells
Description: as §1, §2, §3, §4, §5

[5] = system: PC3 cells (human prostate carcinoma); assay: MTT cell viability assay, PC3 cells; type: cell-based; details: PC-3, read-out: IC 50, inhibition in PC3 cells
Description: as §1, §2, §3, §4
(§7) Compounds II-IV were compared with genistein to test the cell viability of LNCaP, PC3 and DU-145 cell lines (human prostate carcinoma).

[6] = system: MDA-MB-435 cells (human mammary ductal carcinoma); assay: MTT cell viability assay, MDA-MB-435 cells; type: cell-based; details: 48 hours incubation, read-out: IC50, inhibition of MDA-MB-435 cell line
Description: as §6, §1, §2, §3, §4

[7] = system: C-33A (cervical carcinoma) cells; assay: MTT cell viability assay, C-33A cells; type: cell-based; details: Homo sapiens, 48 hours incubation, read-out: IC 50, inhibition of C-33A cells
Description: as §1, §2, §3, §4, §5

[8] = system: LNCaP cells (human prostate carcinoma); assay: MTT cell viability assay, LNCaP cells; type: cell-based; details: 48 hours incubation
Description: as §1, §2, §3, §4, §7

[9] = system: DU-145 cells (human prostate carcinoma); assay: MTT cell viability assay, DU-145 cells; type: cell-based; details: 48 hours incubation
Description: as §1, §2, §3, §4, §7

[10] = Tolerability in the xenograft mouse model; type: in vivo; details: doses of 50, 25 and 10 mg/kg intraperitoneally for 14 days
Description: (§8) Female athymic mice (54) were implanted subcutaneously in the right hind flank with human DU145 prostate tumour cells (5×10^6). Tumour formation and growth were monitored until the tumours reached an average 25 mm^2 area (5 mm×5 mm). Mice were randomised into groups based upon tumour area (mean tumour area in individual groups ranged from 22 mm^2-33 mm^2). Compositions of Compounds II and III were prepared in a solution of 5% DMSO, 10% Tween 80 in PBS and administered intraperitoneally in a volume of 100 μl at doses of 50, 25, and 10 mg/kg to individual eight week old female Balb/c mice for 14 days. Vehicle control was 5% DMSO, 10% Tween 80 in PBS.

[11] = system: JAM (ovarian carcinoma) cells; assay: MTT cell viability assay, JAM cells; type: cell-based; details: for IC50: Ovarian carcinoma cell, 96 hours incubation, read-out: IC 50, inhibition of JAM cells
Description: as §1, §2, §3, §4
Compound IV was compared with genistein to test the cell viability of JAM (ovarian carcinoma) and HELA (human cervical carcinoma) cell lines.

[12] = system: HELA (human cervical carcinoma) cells; assay: MTT cell viability assay, HELA cells; type: cell-based; details: 96 hour incubation, read-out: IC 50, inhibition of HELA cells
Description: as §1, §2, §3
(§9) MTT reagent was then added to each well. The plates were then incubated in a 37° C./5% CO2 incubator. Detergent reagent was then added to each well. […] The absorbance was read at 570 nm. […]

[13] = system: B16-F1 cells (murine melanoma); assay: MTT cell viability assay, B16-F1 cells; type: cell-based; details: Mus musculus, 96 hours incubation, read-out: IC 50, inhibition of B16-F1 cells
Description: as §1, §2, §3, §9

[14] = system: AB1 cells (murine myeloma); assay: MTT cell viability assay, AB1 cells; type: cell-based; details: Mus musculus, 96 hours incubation, read-out: IC 50, inhibition of AB1 cells
Description: as §1, §2, §3, §9

[15] = system: human DU145 prostate tumour cells (xenograft); assay: Anti-tumour efficacy in DU145 xenograft mouse model; type: in vivo, mice
Description: The cell lines were cultured and prepared for inoculation according to standard protocols.
as §8

[16] = read-out: IC 50, inhibition of LNCaP cells
[17] = read-out: IC 50, inhibition of DU-145 cells

Row | IC50 [11] | IC50 [13] | IC50 [14] | SMILES | IC50 [1] | IC50 [2] | IC50 [3] | IC50 [4] | IC50 [5] | IC50 [6] | IC50 [7] | IC50 [8, 16] | IC50 [9, 17] | tolerability / toxicity in the animals [10] | also measured
1 |  |  |  | C=C(C(=O)c1cc(OC)c(OC)cc1OC)c1ccc(OC)c(OC)c1 [Compound III, 1-(2,4,5-trimethoxyphenyl)-2-(3,4-dimethoxyphenyl)prop-2-en-1-one] | 11.7 µM | 5.5 µM | 3 µM | 33.1 µM | 8.6 µM | 3.8 µM | 3.1 µM | 5 µM | 15 µM | neither compound resulted in unacceptable toxicity | 
2 | 0.9 µg/mL (≈ 2.84 µM) |  |  | COc1ccc(C(=O)Cc2ccc(OC)c(OC)c2)c(OC)c1 [Compound V, 1-(2,4-dimethoxyphenyl)-2-(3,4-dimethoxyphenyl)ethanone] |  |  |  |  |  |  |  |  |  |  | IC50 [12]: 3 µg/mL (≈ 9.48 µM)
3 | 9.7 µg/mL (≈ 35.9 µM) | 4.5 µg/mL (≈ 16.7 µM) | 1.1 µg/mL (≈ 4.07 µM) | O=c1c(-c2ccc(O)cc2)coc2cc(O)cc(O)c12 [genistein, reference compound] |  |  | 79.4 µM |  |  | > 100 µM | 41.9 µM |  | 78.9 µM |  | IC50 ([8]; genistein, read-out: IC, inhibition of LNCaP cells): 59.5 µM
4 |  | 1.6 µg/mL (≈ 4.87 µM) | 1.1 µg/mL (≈ 3.35 µM) | C=C(C(=O)c1ccc(OC)cc1OC)c1ccc(OC)c(OC)c1 [Compound IV, 1-(2,4-dimethoxyphenyl)-2-(3,4-dimethoxyphenyl)prop-2-en-1-one] | 16.9 µM | 3.5 µM | 6.8 µM | 27.4 µM | 8.7 µM | 6.8 µM | 2.4 µM | 6.1 µM |  |  | cytotoxic potency compared with genistein ([11]; JAM and HELA cell lines): more potent as a cytotoxic agent than genistein; IC50 ([9]; read-out: IC 50, inhibition of DU-145 cells (unit inferred)): 10.7 µM
5 |  |  |  | C=C(C(=O)c1ccc(OC)c(OC)c1OC)c1ccc(OC)cc1 [Compound II, 1-(2,3,4-trimethoxyphenyl)-2-(4-methoxyphenyl)prop-2-en-1-one] | 3.3 µM | 3.5 µM | 2.2 µM | 21.5 µM | 2.7 µM | 0.6 µM | 1.8 µM | 2.3 µM | 4.8 µM | better tolerated by the animals than Compound III; also recorded: neither compound resulted in unacceptable toxicity | reduction mean tumour growth relative to the control group ([15]; 10 mg/kg intraperitoneally for 14 days, at the completion of treatment): 42%; statistical significance of tumour growth inhibition ([15]; 25 mg/kg and 10 mg/kg treatment groups, t-test P<0.05): statistically significant; tumour growth relative to control animals treated with vehicle alone (in words) ([15]; 50, 25, 10 mg/kg intraperitoneally, 14 days): caused delay in the growth of DU-145 tumours; also recorded: clearly inhibited tumour growth; anti-tumour effect, comparison between Compounds II and III ([15]; DU145 xenograft, 50, 25, 10 mg/kg): has the most anti-tumour effect; also recorded: superior anti-tumour effect in comparison with Compound III; tumour size following the cessation of treatment ([15]; after the 14 day treatment, entire study period): tumours remained smaller
